Measurements reported in patent publication US11104883B2, “SC-beta cells and compositions and methods for generating the same” (President and Fellows of Harvard College, priority 2013, dated 2021).

Columns and labels:
SC-β cells [1] = assay: Anti-diabetic drug treatment of plated SC-β cells, secreted human insulin ELISA; type: cell-based; conditions: 2 and 20 mM glucose
Method: FIG. 16A is a schematic illustration of the utility of SC-β cells for treating diabetes or screening drugs to improve function or replication. FIG. 16B is a table listing diabetic drugs investigated and their general therapeutic category. FIG. 16C is a graph showing ELISA measurements of secreted human insulin from plated SC-β cells treated with the indicated drugs in 2 and 20 mM glucose. Indicated p values compare the insulin value in 20 mM glucose between the drug and the control. FIG. 16D is an immunofluorescence image of dispersed and plated SC-β cells stained with DAPI (blue), C-peptide (green), and Ki67 (red) without treatment. FIG. 16E is an immunofluorescence image of dispersed and plated SC-β cells stained with DAPI (blue), C-peptide (green), and Ki67 (red) treated with prolactin for 48 hours. […] FIG. 16G is a graph illustrating fasting blood glucose measurements of Akita mice transplanted with SC-β cells (n=6) or PH cells (n=6). *p<0.05 comparing the two cell groups on the same day. FIG. 16H is a graph illustrating blood glucose measurements from progressively diabetic Akita mice transplanted with SC-β cells or PH cells. Measurements were taken before (white bars) and 20 min after (black bars) a glucose injection of mice transplanted 2 weeks prior. Glucose measurements were saturated at 550 mg/dL. *p<0.05 comparing the two cell groups at the same time post glucose injection. FIG. 16I is a graph showing ELISA measurements of human insulin from the serum of Akita mice 20 min after a glucose injection. Mice were challenged with glucose 2 weeks post transplantation. *p<0.05 comparing the two cell groups. Scale bar-50 μm.
The inventors first tested whether SC-β cells could respond to existing anti-diabetic drugs from several different classes (FIG. 16B). LY2608204 is glucokinase activator in clinical trials while liraglutide, tolbutamide, and nateglinide are examples of GLP-1 agonists and secretagogues (sulfonylureas and meglitinides), respectively, that have been used clinically (Matschinsky, 2009; Modi, 2007; Vetere et al., 2014).

cells in Steps 3-6 = assay: Modified differentiation protocol (Steps 3-6): cell survival and marker-positive populations; type: cell-based, human; conditions: for cell survival: Steps 3-5
Source text: FIG. 15A is a schematic illustration of the protocol.
One challenge for the stem cell field has been generating a sufficient quantity of SC-β cells that can be useful for drug screening, disease modeling, or therapeutic use. For example, hES cells are technically difficult to culture, are vulnerable to apoptosis upon cellular detachment and dissociation, undergo massive cell death particularly after complete dissociation, and have low cloning efficiency. (Watanabe, K. et al., Nature Biotechnology 25, 681-686 (2007)). As a result, the quantity of viable SC-β cells yielded may be low. By modify the protocol between Steps 3 and 6 in the manner shown in FIG. 15A, more pure NKX6.1+ endocrine clusters can be generated (FIG. 15B) leading to more SC-β cells that can be therapeutically useful.
In Steps 3-5, for instance, cell survival can be improved by adding a rho-associated protein kinase inhibitor, or a Rock inhibitor. It is believed that the addition of a Rock inhibitor enhances survival of ES cells by preventing dissociation-induced apoptosis thus increasing their cloning efficiency. (Watanabe et al.) Examples of Rock inhibitors include, but are not limited to, Y-27632, Fasudil/HA1077, and H-1152.
In addition to treating the cells with a Rocki inhibitor, the cells in Steps 3-4 can be treated with ActivinA alone or in combination with Nicotinamide. […] Since SOX2 and NKX6-1 are mutually exclusive (FIG. 15E), down-regulation of SOX2 results in the up-regulation of NKX6-1, a marker for a mature pancreatic cell.
In Steps 5-6, cell survival can further be enhanced by treating cells with staurosporine. Staurosporine is known to be an activator of neuronal, glial, and stem cell-like neurosphere differentiation and is also thought to induce apoptosis. (Schumacher, et al., Mol. Cell. Neurosci. 2003; 23(4): 669-680).
Finally, cell survival can further be enhanced by treating cells with a culture medium containing Alk5i, T3 in combination with XXI, a γ-secretase inhibitor that improves β cell maturation.

SC-β cells [2] = assay: GSIS of SC-β cells after additional factors in the last-step (Stage 6) media; type: cell-based, human; conditions: factor added to CMRL media containing Alk5 inhibitor and T3 hormone; versus CMRL only, CMRL+Alk5i+T3, S3+Alk5i+T3
Source text: To induce the in vitro maturation of at least some of the Pdx1-positive, NKX6-1-positive, insulin-positive endocrine cells into SC-β cells, the Pdx1-positive, NKX6-1-positive, insulin-positive endocrine cells are maintained in a suitable culture medium for a sufficient period of time. […] Adding additional factors to the CMRL media at the last step of differentiation (Stage 6) (FIG. 14A), however, was also found to generate a better glucose stimulated insulin secretion (GSIS) response by SC-β cells as measured by either stimulation index between high and low glucose challenges or by the amount of insulin released. Such additional factors may include, but are not limited to, Sant1, XXI, and SSP. The stimulation index, as calculated by the ratio of insulin secreted in high glucose (15 mM) to low glucose (2.5 mM), was greater for the SC-β cells maintained in a CMRL media containing Alk5 inhibitor, T3 hormone and either Sant1, XXI or SSP than those SC-β cells maintained in only CMRL media, CMRL media containing Alk5 inhibitor and T3 hormone, or S3 media containing Alk5 inhibitor and T3 hormone (FIG. 14B). Furthermore, the amount of insulin secreted was greater for the SC-β cells maintained in a CMRL media containing Alk5 inhibitor, T3 hormone and either Sant1, XXI or SSP than those SC-β cells maintained in only CMRL media, CMRL media containing Alk5 inhibitor and T3 hormone, or S3 media containing Alk5 inhibitor and T3 hormone (FIG. 14C).
Alternatively, Days 21-35: CMRLS+10 μM Alk5i II+1 μM T3+Sant1.
Alternatively, Days 21-35: CMRLS+10 μM Alk5i II+1 μM T3+XXI.
Alternatively, Days 21-35: CMRLS+10 μM Alk5i II+1 μM T3+SSP.

SC-β cells [3] = assay: β cell replication: C-peptide and Ki67 staining of plated SC-β cells; type: cell-based, human; conditions: SC-β cells treated with prolactin for 48 hours
Method: FIG. 16A is a schematic illustration of the utility of SC-β cells for treating diabetes or screening drugs to improve function or replication. FIG. 16B is a table listing diabetic drugs investigated and their general therapeutic category. FIG. 16C is a graph showing ELISA measurements of secreted human insulin from plated SC-β cells treated with the indicated drugs in 2 and 20 mM glucose. Indicated p values compare the insulin value in 20 mM glucose between the drug and the control. FIG. 16D is an immunofluorescence image of dispersed and plated SC-β cells stained with DAPI (blue), C-peptide (green), and Ki67 (red) without treatment. FIG. 16E is an immunofluorescence image of dispersed and plated SC-β cells stained with DAPI (blue), C-peptide (green), and Ki67 (red) treated with prolactin for 48 hours. […] FIG. 16G is a graph illustrating fasting blood glucose measurements of Akita mice transplanted with SC-β cells (n=6) or PH cells (n=6). *p<0.05 comparing the two cell groups on the same day. […]
Cells were dispersed and plated onto 96 well plates. […] The percentage of target cell-types was quantified using the Array Scan Cellomics high-content screening system. Here 30 images were acquired per well and quantified. Cells labeled by antibody staining and total cell number (based on DAPI nuclei staining) were quantified to obtain percentages of target cell types.

With `O=C(Nc1ncc(SCCN2CCCC2)s1)[C@]1(c2ccc(S(=O)(=O)C3CC3)cc2)C[C@H]1C1CCCCC1` [LY2608204] the “insulin secretion in vitro following a glucose challenge” value (shortened to “insulin secretion”) (SC-β cells [1]) was “increasing insulin secretion”.

With `NC(=O)c1cccnc1` [Nicotinamide] the cell survival (cells in Steps 3-6) was “improve cell survival”.

With `Cc1nn(-c2ccccc2)c(C)c1/C=N/N1CCN(Cc2ccccc2)CC1` [Sant1] the “amount of insulin secreted” value (SC-β cells [2]) was “greater” and the “stimulation index, ratio of insulin secreted in high glucose (15 mM) to low glucose (2.5 mM)” value (SC-β cells [2]) was “greater”.

For `C[C@H](NC(=O)Cc1cc(F)cc(F)c1)C(=O)N[C@H]1N=C(c2ccccc2)c2ccccc2N(C)C1=O` [XXI], the “amount of insulin secreted” value (SC-β cells [2]) was “greater”, the “stimulation index, ratio of insulin secreted in high glucose (15 mM) to low glucose (2.5 mM)” value (SC-β cells [2]) was “greater” and the “NeuroD1+ population” value (cells in Steps 3-6; added to medium with Alk5i and T3 at Steps 5 and 6) was “increase the NeuroD1+ population”.

In the case of `CC(C)[C@H]1CC[C@H](C(=O)N[C@H](Cc2ccccc2)C(=O)O)CC1` [nateglinide], the “insulin secretion” value (SC-β cells [1]) is reported as “increasing insulin secretion”.

In the case of `CN[C@@H]1C[C@H]2O[C@@](C)([C@@H]1OC)n1c3ccccc3c3c4c(c5c6ccccc6n2c5c31)C(=O)NC4` [staurosporine], the “percentage of ChromograninA” value (cells in Steps 3-6; Steps 5-6) is reported as “increasing the percentage of ChromograninA” and the “percentage of NKX6-1/C-peptide+ cells” value (cells in Steps 3-6; Steps 5-6) is reported as “increasing the percentage of NKX6-1.C-peptide+ cells”.

`CCCCNC(=O)NS(=O)(=O)c1ccc(C)cc1` [tolbutamide] was tested, and the “insulin secretion” value (SC-β cells [1]) was “increasing insulin secretion”.

B1: prolactin: hormone tested for β cell replication (protein, UniProt P01236 29-227, looked up)
Prolactin: LPICPGGAARCQVTLRDLFDRAVVLSHYIHNLSSEMFSEFDKRYTHGRGFITKAINSCHTSSLATPEDKEQAQQMNQKDFLSLIVSILRSWNEPLYHLVTEVRGMQEAPEAILSKAVEIEEQTKRLLEGMELIVSQVHPETKENEIYPVWSGLPSLQMADEESRLSAYYNLLHCLRRDSHKIDNYLKLLKCRIIHNNNC
With B1 the “Ki67+/C-peptide+ cells” value (SC-β cells [3]) was 0.39±0.08%.

B2: Activin A: growth factor from the TGF-β superfamily (protein, UniProt P08476 311-426, looked up)
Inhibin beta A chain: GLECDGKVNICCKKQFFVSFKDIGWNDWIIAPSGYHANYCEGECPSHIAGTSGSSLSFHSTVINHYRMRGHSPFANLKSCCVPTKLRPMSMLYYDDGQNIIKKDIQNMIVEECGCS
modifications: Inhibin beta A chain
notes: growth factor from the TGF-β superfamily
With B2 the cell survival (cells in Steps 3-6) was “improve cell survival”.
